In PMC4113814, “Bioactive Cembrane Derivatives from the Indian Ocean Soft Coral, Sinularia kavarattiensis” (Marine Drugs, 2014):
Converted amounts (≈) assume the structure as drawn.

Tests used:
IL-6 = IL-6 release in supernatants of LPS-treated primary microglial cells (ELISA); format: cell-based, Wistar rats; details: 72 h; for IL-6 release: LPS-treated; for IC50: Rattus norvegicus, inhibition of LPS-induced cytokine release, read-out: IL-6 IC50
Experimental: (§1) Primary microglial cell cultures were prepared from brains of newborn Wistar rats. Ethics approval for the experiments was granted by the EBIOTEC Review Board (Valter Lombardi, Iván Carrera and Lucía Fernández-Novoa; Project Identification Code: Sinularia Project October 2013; approved 30 October 2013). The neocortex of one-day-old postnatal rats was aseptically dissected out, and the meninges and blood vessels were carefully removed. Following cutting in a medium containing 20% horse serum, the suspension was filtered through a […] and transferred as a single cell suspension to culture dishes, using 5.0 mL of medium per dish. The cultures were incubated at 37 °C in an atmosphere containing 5% CO2. The culture medium consisted of Minimum Essential Medium Eagle, supplemented with L-glutamine, amino acids, vitamins, penicillin, gentamicin, sodium bicarbonate and 20% heat-inactivated horse serum. The medium was changed twice a week. After 1 week, the concentration of horse serum was reduced to 10%. After sixteen days in culture, cells were treated with 1 μg/mL of lipopolysaccharide (LPS). […] Positive controls were treated only with LPS, while negative controls were treated with complete medium. After 72 h of incubation, cells were counted, and 2.5 mL of the supernatants were collected from each well and frozen at −40 °C for cytokine analyses. All experiments were carried out twice.
(§2) The supernatants obtained from cell cultures were analyzed for TNF-α, IL-1β, IL-4, IL-6, IL-8, IL-10 and IL-18 using commercially available ELISA kits following the manufacturers’ instructions. All samples were assayed in duplicate, and equivocal results were repeated. The cytokine concentration was calculated from a standard curve of the corresponding recombinant cytokine.
(§3) The cytotoxicity of the compounds was measured by the colorimetric methyl thiazol tetrazolium (MTT) assay and scored as a percentage of the absorbance reduction of treated cultures versus untreated control cultures. Primary microglial cell cultures were seeded into 96-well microplates at 10^4 cells per well and allowed to grow for 24 h. […] The compounds were serially diluted in complete culture medium with two-fold dilutions (100, 50, 25, 12.5, 6.25, 3.12 and 1.56 μg/mL for in vitro cytotoxicity; 12.5, 6.25, 3.12, 1.56, 0.78 and 0.39 μg/mL for cytokine release). Different concentrations of the compounds were added to each well, and Tamoxifen was used as a positive control, with concentrations ranging from 50 to 1.56 μg/mL. Plates were incubated at 37 °C for 72 h under 5% CO2 atmosphere. Then, the 50 μL of MTT-PBS solution in culture medium were added to each well. The plates were further incubated for 4 h under the same conditions. The medium was then removed and replaced with 200 μL of DMSO to solubilize the MTT formazan product. The solutions were shaken for 20 min, and the absorbance was measured at 570 nm. […] Each value represents the mean of triplicate determinations. The IC50 values were calculated from the compound concentration-response curves.

IL-8 = IL-8 release in supernatants of LPS-treated primary microglial cells (ELISA); format: cell-based, Wistar rats; details: 72 h; for IL-8 release: LPS-treated; for IC50: Rattus norvegicus, inhibition of LPS-induced cytokine release, read-out: IL-8 IC50
Experimental: as §1, §2, §3

IL-18 = IL-18 release in supernatants of LPS-treated primary microglial cells (ELISA); format: cell-based, Wistar rats; details: 72 h; for IL-18 release: LPS-treated; for IC50: Rattus norvegicus, inhibition of LPS-induced cytokine release, read-out: IL-18 IC50
Experimental: as §1, §2
as §3, with “The compounds were serially diluted in complete culture medium with two-fold dilutions (100, 50, 25, 12.5, 6.25, 3.12 and 1.56 μg/mL for in vitro cytotoxicity; 12.5, 6.25, 3.12, 1.56, 0.78 and 0.39 μg/mL for cytokine release).” left out

TNF-α = TNF-α release in supernatants of LPS-treated primary microglial cells (ELISA); format: cell-based, Wistar rats; details: 72 h; for TNF-α release: LPS-treated; for IC50: Rattus norvegicus, inhibition of LPS-induced cytokine release, read-out: TNF-α IC50
Experimental: as §1, §2, §3

IL-10 = IL-10 release in supernatants of LPS-treated primary microglial cells (ELISA); format: cell-based, Wistar rats; details: 72 h; for IL-10 release: LPS-treated; for IC50: Rattus norvegicus, inhibition of LPS-induced cytokine release, read-out: IL-10 IC50
Experimental: as §1, §2, §3

CHIKV replicon [1] = details: summary statement
CHIKV replicon [2] = assay: microbe, parasite or virus in culture; details: Chikungunya virus, 48 h, read-out: inhibition of the CHIKV replicon (Rluc marker levels)
BHK-CHIKV-NCT cells [3] = assay: Cytotoxicity assay by ATP quantitation (CellTiter GLO); details: 100 μM, cell concentration lowered to 3000 cells/well
BHK-CHIKV-NCT cells [4] = assay: Cell-IQ live cell imaging, cytotoxicity by cell classification (viable cells); details: 100 μM, 48 h, 3000 cells/well

C=C(C)[C@@H]1C/C=C2\C(=O)O[C@@H](C[C@]3(C)CC(=O)[C@H](CC(=O)C1)O3)[C@@H]2O [Compound 1, 5-epi-sinuleptolide]
IL-6 release (IL-6; C1: 1.0 μg/mL): 14.2 ± 1.8 pg/mL
IL-6 release (IL-6; C2: 2.5 μg/mL): 11.7 ± 1.2 pg/mL
IL-6 release (IL-6; C3: 5.0 μg/mL): 13.5 ± 1.4 pg/mL
IC50 (IL-6): > 12.5 µg/mL
IL-8 release (IL-8; C1: 1.0 μg/mL): 256 ± 12 pg/mL
IL-8 release (IL-8; C2: 2.5 μg/mL): 239 ± 5 pg/mL
IL-8 release (IL-8; C3: 5.0 μg/mL): 241 ± 7 pg/mL
IC50 (IL-8): > 12.5 µg/mL
IL-18 release (IL-18; C1: 1.0 μg/mL): 319 ± 8.1 pg/mL
IL-18 release (IL-18; C2: 2.5 μg/mL): 318 ± 7.5 pg/mL
IL-18 release (IL-18; C3: 5.0 μg/mL): 315 ± 8.1 pg/mL
IC50 (IL-18): > 12.5 µg/mL
TNF-α release (TNF-α; C1: 1.0 μg/mL): 33.5 ± 11.2 pg/mL
TNF-α release (TNF-α; C2: 2.5 μg/mL): 31.2 ± 9.2 pg/mL
TNF-α release (TNF-α; C3: 5.0 μg/mL): 33.6 ± 11.1 pg/mL
IC50 (TNF-α): > 12.5 µg/mL
IL-10 release (IL-10; C1: 1.0 μg/mL): 7.6 ± 1.6 pg/mL
IL-10 release (IL-10; C2: 2.5 μg/mL): 8.2 ± 1.8 pg/mL
IL-10 release (IL-10; C3: 5.0 μg/mL): 8.7 ± 2.1 pg/mL
IC50 (IL-10): > 12.5 µg/mL
overall activity in the CHIKV replicon model (CHIKV replicon [1]): moderate inhibition
inhibition at 100 µM (CHIKV replicon [2]): > 60%
reduction of ATP level (BHK-CHIKV-NCT cells [3]): 39%
decrease in the amount of viable cells (living or dividing) (BHK-CHIKV-NCT cells [4]): > 80%

C=C(C)[C@@H]1C/C=C2\C(=O)O[C@@H](C[C@]3(C)CC(=O)[C@@H](CC(=O)C1)O3)[C@@H]2O [Compound 2, sinuleptolide]
IL-6 release (IL-6; C1: 1.0 μg/mL): 12.1 ± 0.9 pg/mL
IL-6 release (IL-6; C2: 2.5 μg/mL): 7.8 ± 1.4 pg/mL
IL-6 release (IL-6; C3: 5.0 μg/mL): 8.5 ± 1.3 pg/mL
IC50 (IL-6): 2.2 µg/mL (≈ 6.31 µM)
IL-8 release (IL-8; C1: 1.0 μg/mL): 249 ± 13 pg/mL
IL-8 release (IL-8; C2: 2.5 μg/mL): 123 ± 11 pg/mL
IL-8 release (IL-8; C3: 5.0 μg/mL): 108 ± 9 pg/mL
IC50 (IL-8): 2.3 µg/mL (≈ 6.6 µM)
IL-18 release (IL-18; C1: 1.0 μg/mL): 326 ± 4.9 pg/mL
IL-18 release (IL-18; C2: 2.5 μg/mL): 187 ± 14 pg/mL
IL-18 release (IL-18; C3: 5.0 μg/mL): 155 ± 11 pg/mL
IC50 (IL-18): 2.9 µg/mL (≈ 8.32 µM)
TNF-α release (TNF-α; C1: 1.0 μg/mL): 34.1 ± 9.1 pg/mL
TNF-α release (TNF-α; C2: 2.5 μg/mL): 12.3 ± 3.4 pg/mL
TNF-α release (TNF-α; C3: 5.0 μg/mL): 9.8 ± 3.3 pg/mL
IC50 (TNF-α): 1.7 µg/mL (≈ 4.88 µM)
IL-10 release (IL-10; C1: 1.0 μg/mL): 7.9 ± 3.4 pg/mL
IL-10 release (IL-10; C2: 2.5 μg/mL): 17.4 ± 2.3 pg/mL
IL-10 release (IL-10; C3: 5.0 μg/mL): 18.5 ± 1.9 pg/mL
IC50 (IL-10): 0.5 µg/mL (≈ 1.44 µM)
overall activity in the CHIKV replicon model (CHIKV replicon [1]): moderate inhibition
inhibition at 100 µM (CHIKV replicon [2]): > 60%
reduction of ATP level (BHK-CHIKV-NCT cells [3]): 44%
decrease in the amount of viable cells (living or dividing) (BHK-CHIKV-NCT cells [4]): > 80%

C=C(C)C1CCC23OC2C(CC2(C)CC(=O)C(CC(=O)C1)O2)OC3=O (stereo not drawn) [Compound 3, scabrolide D]
IL-6 release (IL-6; C1: 1.0 μg/mL): 12.9 ± 1.1 pg/mL
IL-6 release (IL-6; C2: 2.5 μg/mL): 11.5 ± 1.3 pg/mL
IL-6 release (IL-6; C3: 5.0 μg/mL): 13.2 ± 1.2 pg/mL
IC50 (IL-6): > 12.5 µg/mL
IL-8 release (IL-8; C1: 1.0 μg/mL): 247 ± 8 pg/mL
IL-8 release (IL-8; C2: 2.5 μg/mL): 237 ± 4 pg/mL
IL-8 release (IL-8; C3: 5.0 μg/mL): 244 ± 11 pg/mL
IC50 (IL-8): > 12.5 µg/mL
IL-18 release (IL-18; C1: 1.0 μg/mL): 312 ± 8.2 pg/mL
IL-18 release (IL-18; C2: 2.5 μg/mL): 321 ± 7.8 pg/mL
IL-18 release (IL-18; C3: 5.0 μg/mL): 318 ± 7.6 pg/mL
IC50 (IL-18): > 12.5 µg/mL
TNF-α release (TNF-α; C1: 1.0 μg/mL): 33.6 ± 11.2 pg/mL
TNF-α release (TNF-α; C2: 2.5 μg/mL): 24.5 ± 6.9 pg/mL
TNF-α release (TNF-α; C3: 5.0 μg/mL): 35.4 ± 12.4 pg/mL
IC50 (TNF-α): > 12.5 µg/mL
IL-10 release (IL-10; C1: 1.0 μg/mL): 7.5 ± 1.4 pg/mL
IL-10 release (IL-10; C2: 2.5 μg/mL): 6.8 ± 1.5 pg/mL
IL-10 release (IL-10; C3: 5.0 μg/mL): 6.9 ± 1.5 pg/mL
IC50 (IL-10): > 12.5 µg/mL
inhibition at 100 µM (CHIKV replicon [2]): 44%

C=C(C)[C@@H]1CC(=O)[C@H]2[C@H](C1)[C@@H]1C(=O)O[C@@H]3C[C@@]4(C)O[C@H]2C(=O)[C@@H]4[C@H]13 [Compound 6, ineleganolide]
IL-6 release (IL-6; C1: 1.0 μg/mL): 13.2 ± 0.2 pg/mL
IL-6 release (IL-6; C2: 2.5 μg/mL): 12.1 ± 0.9 pg/mL
IL-6 release (IL-6; C3: 5.0 μg/mL): 11.8 ± 1.2 pg/mL
IC50 (IL-6): > 12.5 µg/mL
IL-8 release (IL-8; C1: 1.0 μg/mL): 247 ± 8 pg/mL
IL-8 release (IL-8; C2: 2.5 μg/mL): 247 ± 8 pg/mL
IL-8 release (IL-8; C3: 5.0 μg/mL): 247 ± 8 pg/mL
IC50 (IL-8): > 12.5 µg/mL
IL-18 release (IL-18; C1: 1.0 μg/mL): 312 ± 8.2 pg/mL
IL-18 release (IL-18; C2: 2.5 μg/mL): 312 ± 8.2 pg/mL
IL-18 release (IL-18; C3: 5.0 μg/mL): 312 ± 8.2 pg/mL
IC50 (IL-18): > 12.5 µg/mL
TNF-α release (TNF-α; C1: 1.0 μg/mL): 31.2 ± 2.9 pg/mL
TNF-α release (TNF-α; C2: 2.5 μg/mL): 30.6 ± 2.6 pg/mL
TNF-α release (TNF-α; C3: 5.0 μg/mL): 32.3 ± 3.2 pg/mL
IC50 (TNF-α): > 12.5 µg/mL
IL-10 release (IL-10; C1: 1.0 μg/mL): 8.5 ± 3.2 pg/mL
IL-10 release (IL-10; C2: 2.5 μg/mL): 7.8 ± 2.2 pg/mL
IL-10 release (IL-10; C3: 5.0 μg/mL): 7.5 ± 2.1 pg/mL
IC50 (IL-10): > 12.5 µg/mL
inhibition at 100 µM (CHIKV replicon [2]): 0.5 to 63%
